Here are results for 4 compounds from patent US20030176475A1, “Therapeutically useful new salts of cck inhibitors, process for the preparation thereof and pharmaceutical preparations containing them” (priority 2000, published 2003).

Data set [1] addresses T1, cholecystokinin A (CCK-A) (Rattus norvegicus, UniProt P30551).
T1 construct: from tissue; host or cells: living rat (in vivo, oral dosing; gastric emptying)
T1 sequence (P30551 1-444): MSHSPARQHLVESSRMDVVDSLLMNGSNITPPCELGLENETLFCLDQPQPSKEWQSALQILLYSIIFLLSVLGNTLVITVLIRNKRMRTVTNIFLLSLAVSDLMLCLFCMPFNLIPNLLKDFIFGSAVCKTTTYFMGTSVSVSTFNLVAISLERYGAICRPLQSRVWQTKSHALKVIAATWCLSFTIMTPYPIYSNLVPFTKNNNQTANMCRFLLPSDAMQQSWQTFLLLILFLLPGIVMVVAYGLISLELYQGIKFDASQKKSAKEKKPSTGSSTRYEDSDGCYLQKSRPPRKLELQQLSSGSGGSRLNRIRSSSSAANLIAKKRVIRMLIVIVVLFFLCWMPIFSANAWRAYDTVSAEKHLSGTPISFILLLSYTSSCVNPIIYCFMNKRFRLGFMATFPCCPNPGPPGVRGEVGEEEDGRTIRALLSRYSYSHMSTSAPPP
As to conditions: comparison in words; cited from earlier work.

A short description of data set [2]: Hygroscopicity and chemical stability of the salts. Type of data set: physicochemical. An excerpt:
The mono- and di-sodium salts, as well as the mono- and di-potassium salts and their hydrates are highly hygroscopic and chemically not stable compounds namely the compound of the formula (II) decomposes at the amide bond giving rise to decomposition products of formulae (IV) (FIG. 6) and (V) (FIG. 7).

Usually melting point stands for the temperature of the solid-liquid transition. Compound `CCNCC.COc1cc(-c2nc(NC(=O)c3cc4cc(C)cc(C)c4n3CC(=O)O)sc2CCC2CCCCC2)c(OC)cc1Cl` had a melting point of 209.4 to 210.7 °C. The same measure, in the same setting: in the case of `COc1cc(-c2nc(NC(=O)c3cc4cc(C)cc(C)c4n3CC(=O)O)sc2CCC2CCCCC2)c(OC)cc1Cl.NCCO.O` (hydrate or solvate) it was 166 to 167 °C. For the compound `Nc1cc(Cl)nc(C(=O)[O-])c1Cl.[K+]` [potassium salt], the “ED50 of prior salts compared with the 34 μg/kg p.o. of the compound of the invention” value in data set [1] is reported as “in the same order”. In turn, `COc1cc(-c2nc(NC(=O)c3cc4cc(C)cc(C)c4n3CC(=O)O)sc2CCC2CCCCC2)c(OC)cc1Cl.NCCO` [ethanolamine salt, 2-[[[4-(4-chloro-2,5-dimethoxyphenyl)-5-(2-cyclohexylethyl)-2-thiazolyl]amino]carbonyl]-5,7-dimethyl-1H-indol-1-acetic Acid Ethanolamine Salt] came in with a melting point of 208 to 210 °C. The hygroscopicity entry in data set [2] was “non-hygroscopic”. Besides, the chemical stability result in data set [2] (decomposition at the amide bond to products of formulae (IV) and (V)) was “chemically stable”.
